The text below walks through data of DBAASP.

Common to all, as to assay: ≥ marks a high value that may be exact or a test limit, other limits are often not marked, values filed in µg/mL are converted to µM
For test [1], the system named is Escherichia coli NCTC 10418.
For test [2], the system named is Bacillus subtilis.
For test [3], the system named is Candida albicans ATCC 2002.
In test [4] the test system is Escherichia coli ML-35p.
Test [5] has as its system Pseudomonas aeruginosa ATCC 27853.
For test [6], the system named is Pseudomonas aeruginosa PAO1.
The subject of test [7] is Staphylococcus aureus ATCC 2592.
Test [8] concerns Staphylococcus aureus ATCC 43300.
The subject of test [9] is Acinetobacter baumannii.
Test [10] deals with Candida albicans ATCC 90028.
The test system of test [11] is Escherichia coli ATCC 25726.
Test [12] deals with Staphylococcus aureus ATCC 25923.
Test [13] relates to Bacillus subtilis KCTC 3068.
The test system of test [14] is Escherichia coli KCTC 1682.
For test [15], the system named is Pseudomonas aeruginosa KCTC 1637.
The subject of test [16] is Salmonella typhimurium KCTC 1926.
The subject of test [17] is Staphylococcus aureus KCTC 1621.
For test [18], the system named is Staphylococcus epidermidis KCTC 1917.
Test [19] deals with Micrococcus luteus ATCC 9341.
Test [20] relates to Escherichia coli K-12.
Test [21] has as its system Staphylococcus aureus USA 300.

Values after ≈ are worked out from the molar mass of the structure shown.

The term MIC denotes the smallest concentration in the dilution series that meets the test's criterion for growth inhibition. A lower MIC goes with greater potency. `CC[C@H](C)[C@H](NC(=O)[C@H](CCCCN)NC(=O)[C@H](C)NC(=O)[C@H](C)N)C(=O)N[C@H](C(=O)N[C@@H](CC(C)C)C(=O)N[C@@H](CC(N)=O)C(=O)N1CCC[C@H]1C(=O)N[C@@H](CCCCN)C(=O)N[C@@H](Cc1ccccc1)C(=O)N[C@@H](CCCN=C(N)N)C(=O)N[C@H]1CSSC[C@@H](C(=O)O)NC(=O)[C@H](Cc2ccccc2)NC(=O)[C@H](C)NC(=O)[C@H](C)NC(=O)[C@H](Cc2ccccc2)NC1=O)[C@@H](C)CC` [AAKIILNPKFRCFAAFC] had an MIC in test [1] of at least 160 µM.

Consider `CC[C@H](C)[C@H](NC(=O)CNC(=O)[C@@H](NC(=O)[C@H](C)NC(=O)[C@H](CCSC)NC(=O)[C@H](CCCCN)NC(=O)[C@@H](NC(=O)[C@@H](NC(=O)[C@@H]1CCCN1C(=O)CNC(=O)[C@H](CC(C)C)NC(=O)[C@@H](N)Cc1ccccc1)[C@@H](C)CC)[C@@H](C)CC)[C@@H](C)O)C(=O)N[C@@H](CC(C)C)C(=O)N1CCC[C@H]1C(=O)N[C@H](C(=O)N[C@@H](C)C(=O)N[C@H](C(=O)N[C@H]1CSSC[C@@H](C(=O)O)NC(=O)[C@H](CCCCN)NC(=O)[C@H](CCCCN)NC(=O)[C@H](CC(C)C)NC(=O)CNC(=O)[C@H](CCCCN)NC1=O)[C@@H](C)CC)[C@@H](C)O` [FLGPIIKMATGILPTAICKGLKKC], for which the MIC in test [2] is 7.95 µM (≈ 20 µg/mL); in test [3], 1.99 µM (≈ 5 µg/mL); in test [4] it was 19.9 µM (≈ 50 µg/mL); in test [5], 1.99 µM (≈ 5 µg/mL); in test [6], 3.97 µM (≈ 9.99 µg/mL); in test [7], 0.993 µM (≈ 2.5 µg/mL). In test [8], this compound had an MIC of 0.993 µM (≈ 2.5 µg/mL).

Take `CC[C@H](C)[C@H](NC(=O)CN)C(=O)N[C@@H](Cc1c[nH]c2ccccc12)C(=O)N[C@@H](CC(=O)O)C(=O)N[C@H](C(=O)N[C@H](C(=O)N[C@@H](CCCCN)C(=O)N[C@@H](CO)C(=O)N[C@@H](CCSC)C(=O)NCC(=O)N[C@@H](CCCCN)C(=O)N[C@H](C(=O)N[C@@H](Cc1ccccc1)C(=O)N[C@@H](C)C(=O)NCC(=O)N[C@@H](C)C(=O)N[C@H](C(=O)N[C@@H](CC(C)C)C(=O)N[C@@H](CCC(N)=O)C(=O)N[C@@H](CC(N)=O)C(=O)N[C@@H](CC(C)C)C(N)=O)[C@@H](C)CC)C(C)C)[C@@H](C)CC)[C@@H](C)O` [GIWDTIKSMGKVFAGAILQNL]: the MIC in test [9] is 12.5 µM (≈ 28.3 µg/mL); in test [10] it was 25 µM (≈ 56.5 µg/mL); in [11] it was at least 50 µM; in test [12] it was 12.5 µM (≈ 28.3 µg/mL).

Take `CC[C@H](C)[C@H](NC(=O)CN)C(=O)N[C@@H](Cc1c[nH]c2ccccc12)C(=O)N[C@@H](CC(=O)O)C(=O)N[C@H](C(=O)N[C@H](C(=O)N[C@@H](CCCCN)C(=O)N[C@@H](CO)C(=O)N[C@@H](CCSC)C(=O)NCC(=O)N[C@@H](CCCCN)C(=O)N[C@H](C(=O)N[C@@H](Cc1ccccc1)C(=O)N[C@@H](C)C(=O)NCC(=O)N[C@@H](CCCCN)C(=O)N[C@H](C(=O)N[C@@H](CCCCN)C(=O)N[C@@H](CCC(N)=O)C(=O)N[C@@H](CC(N)=O)C(=O)N[C@@H](CC(C)C)C(N)=O)[C@@H](C)CC)C(C)C)[C@@H](C)CC)[C@@H](C)O` [GIWDTIKSMGKVFAGKIKQNL]: the MIC in test [9] was 12.5 µM (≈ 29.2 µg/mL); in [10], 25 µM (≈ 58.3 µg/mL); in test [11], at least 50 µM; in test [12], over 100 µM.

As to `CC[C@H](C)[C@H](N)C(=O)NCC(=O)N[C@@H](CCCCN)C(=O)N[C@@H](CCCCN)C(=O)N[C@@H](Cc1ccccc1)C(=O)N[C@@H](CCCCN)C(=O)N[C@@H](CCCN=C(N)N)C(=O)N[C@H](C(=O)N[C@H](C(=O)N[C@@H](CCC(N)=O)C(=O)N[C@@H](CCCN=C(N)N)C(=O)N[C@H](C(=O)N[C@@H](CCCCN)C(=O)N[C@@H](CCCCN)C(=O)N[C@@H](Cc1ccccc1)C(=O)N[C@@H](CC(C)C)C(=O)N[C@@H](CCCN=C(N)N)C(=O)N[C@@H](CCCCN)C(=O)N[C@@H](CC(C)C)C(=O)O)[C@@H](C)CC)C(C)C)[C@@H](C)CC` [IGKKFKRIVQRIKKFLRKL], the MIC in test [13] worked out at 2 µM (≈ 4.8 µg/mL); in test [14], 8 µM (≈ 19.2 µg/mL); in test [15] it was 8 µM (≈ 19.2 µg/mL); in [16], 4 µM (≈ 9.6 µg/mL); in test [17] it was 4 µM (≈ 9.6 µg/mL); in [18], 2 µM (≈ 4.8 µg/mL).

In turn, `CC[C@H](C)[C@H](N)C(=O)N[C@@H](CC(C)C)C(=O)NCC(=O)N[C@@H](Cc1c[nH]c2ccccc12)C(=O)N[C@@H](CCCCN)C(=O)N[C@@H](Cc1c[nH]c2ccccc12)C(=O)NCC(=O)N[C@@H](Cc1c[nH]c2ccccc12)C(=O)N[C@@H](Cc1c[nH]c2ccccc12)C(=O)NCC(=O)N[C@@H](Cc1c[nH]c2ccccc12)C(=O)N[C@@H](CCCN=C(N)N)C(=O)N[C@@H](CCCN=C(N)N)C(N)=O` [ILGWKWGWWGWRR] came in with a minimum inhibitory concentration (MIC) in test [19] of 0.4 µM (≈ 0.714 µg/mL).

`CC[C@H](C)[C@H](N)C(=O)N[C@@H](CC(C)C)C(=O)N1CCC[C@H]1C(=O)N[C@@H](Cc1c[nH]c2ccccc12)C(=O)N[C@@H](CCCCN)C(=O)N[C@@H](Cc1c[nH]c2ccccc12)C(=O)N1CCC[C@H]1C(=O)N[C@@H](Cc1c[nH]c2ccccc12)C(=O)N[C@@H](C)C(=O)N1CCC[C@H]1C(=O)N[C@@H](Cc1c[nH]c2ccccc12)C(=O)N[C@@H](CCCN=C(N)N)C(=O)N[C@@H](CCCN=C(N)N)C(N)=O` [ILPWKWPWAPWRR] returned a minimal inhibitory concentration (MIC) in test [19] of 0.8 µM (≈ 1.43 µg/mL).

With `CC[C@H](C)[C@H](N)C(=O)N[C@@H](CC(C)C)C(=O)N1CCC[C@H]1C(=O)N[C@@H](Cc1c[nH]c2ccccc12)C(=O)N[C@@H](CCCCN)C(=O)N[C@@H](Cc1c[nH]c2ccccc12)C(=O)N1CCC[C@H]1C(=O)N[C@@H](Cc1c[nH]c2ccccc12)C(=O)N[C@@H](Cc1c[nH]c2ccccc12)C(N)=O` [ILPWKWPWW], the MIC in test [19] worked out at 1.6 µM (≈ 2.1 µg/mL).

Regarding `CC[C@H](C)[C@H](NC(=O)[C@@H](N)CCCCN)C(=O)N[C@@H](CCCCN)C(=O)N[C@@H](CC(C)C)C(=O)N[C@@H](Cc1ccccc1)C(=O)N[C@@H](CCCCN)C(=O)N[C@@H](CCCCN)C(=O)N[C@@H](Cc1c[nH]c2ccccc12)C(=O)N1CCC[C@H]1C(=O)N[C@@H](CCCCN)C(=O)N[C@@H](Cc1ccccc1)C(=O)N[C@@H](CC(C)C)C(=O)N[C@@H](Cc1cnc[nH]1)C(=O)N[C@@H](CC(C)C)C(=O)N[C@@H](C)C(=O)N[C@@H](CCCCN)C(=O)N[C@@H](CCCCN)C(=O)N[C@@H](Cc1ccccc1)C(N)=O` [KIKLFKKWPKFLHLAKKF], the MIC in test [13] worked out at 1 µM (≈ 2.3 µg/mL); in [14], 2 µM (≈ 4.6 µg/mL); in [15] it was 2 µM (≈ 4.6 µg/mL); in test [16], 2 µM (≈ 4.6 µg/mL); in test [17], 2 µM (≈ 4.6 µg/mL); in test [18], 1 µM (≈ 2.3 µg/mL).

For `CC[C@H](C)[C@H](NC(=O)[C@H](CCCCN)NC(=O)[C@H](CCC(N)=O)NC(=O)[C@@H](NC(=O)[C@@H](NC(=O)[C@H](CCCCN)NC(=O)[C@@H](N)CCCCN)[C@@H](C)CC)C(C)C)C(=O)N[C@@H](CCCCN)C(=O)N[C@@H](CC(=O)O)C(=O)N[C@@H](Cc1ccccc1)C(=O)N[C@@H](CC(C)C)C(=O)N[C@@H](CCCCN)C(N)=O` [KKIVQKIKDFLK], in test [20], the MIC was at least 106 µM.

`CC[C@H](C)[C@H](NC(=O)[C@H](CC(C)C)NC(=O)CNC(=O)[C@H](CO)NC(=O)[C@@H](NC(=O)[C@H](CC(C)C)NC(=O)[C@@H](N)CC(N)=O)C(C)C)C(=O)N[C@@H](CCC(=O)O)C(=O)N[C@@H](C)C(=O)N[C@@H](CCCNC(=N)N)C(=O)N[C@@H](CCCCN)C(=O)N[C@@H](Cc1ccc(O)cc1)C(=O)N[C@@H](CC(C)C)C(=O)N[C@@H](CCC(=O)O)C(=O)N[C@@H](CCC(N)=O)C(=O)N[C@@H](CC(C)C)C(=O)N[C@@H](Cc1cnc[nH]1)C(=O)N[C@@H](CCCNC(=N)N)C(=O)N[C@@H](CCCCN)C(=O)N[C@@H](CC(C)C)C(=O)N[C@@H](CCCCN)C(=O)N[C@@H](CC(N)=O)C(=O)N[C@@H](CCCNC(=N)N)C(=O)N[C@@H](CCCCN)C(=O)N[C@H](C(=O)O)C(C)C` [NLVSGLIEARKYLEQLHRKLKNRKV]: the MIC in test [20] and in test [21] was at least 92 µM in each case.

For `CC[C@H](C)[C@H](NC(=O)[C@H](CC(C)C)NC(=O)[C@@H]1CCCN1C(=O)[C@H](Cc1ccccc1)NC(=O)[C@H](CCCCN)NC(=O)[C@H](Cc1ccccc1)NC(=O)[C@@H]1CCCN1C(=O)[C@H](Cc1ccccc1)NC(=O)[C@H](Cc1ccccc1)NC(=O)[C@@H]1CCCN1C(=O)[C@H](Cc1ccccc1)NC(=O)[C@H](CCCN=C(N)N)NC(=O)[C@@H](N)CCCN=C(N)N)C(N)=O` [RRFPFFPFKFPLI], the MIC in test [19] came out at 0.4 µM (≈ 0.684 µg/mL).
